Experimental data from patent US8324202B2, “5-phenyl-1H-benzo [E] [1,4] diazepine compounds substituted with an hydroxamic acid group as histone deacetylase inhibitors” (Universita Degli Studi di Firenze, priority 2007, dated 2012).

Tests used:
Assay type in all cases: cell-based, human
[1] = system: NB4 cells; test: Granulocytic differentiation, cytofluorimetric analysis of CD11b membrane expression, alone or with ATRA; details: for % of CD11b+ cells: three days; for effect on CD11b positive cells, in words: alone or in combination with 20 nM ATRA
Procedure: Identification of markers of myeloid maturation was determined by flow cytometry by labelling cells with PE-conjugated antibody and FITC-conjugated antibody to CD11b (granulocyte marker) and CD14 (monocyte marker) respectively (Becton-Dickinson). Cell suspension aliquots (1×10^5 cells) were washed with cell wash buffer (Becton-Dickinson) and incubated with antibodies for 30 minutes in ice. After the incubation cells, resuspended in 0.3 mL of buffer containing Actinomycin D (Becton-Dickinson) to evaluate cell viability, were submitted to the cytofluorimetric analysis (FACScan, Becton-Dickinson). Cells incubated with appropriately labeled isotype controls were used to gate nonspecific fluorescence signal.
(§1) • Compounds (II) in racemic form and enantiomers S or R. • Compounds (III) in racemic form and enantiomers S or R. • Compounds (II) with R1 and R2=hydrogen were tested for their capability to synergize with ATRA and for their ability to induce granulocyte differentiation in the human promyelocytic cell line NB4. ATRA at the final concentration of 1 μM is usually employed to induce granulocyte differentiation in NB4 cells.
(§2) NB4 cells were incubated for three days in presence of the compounds listed above, alone or in combination with ATRA. Granulocyte differentiation of leukemic cells was determined by (a) Nitro-Blu tetrazolium (NBT) reduction to dark formazan precipitate (blu positive cells) counting NBT positive cells on Burker chamber and (b) cytofluorimetric analysis of CD11b membrane expression (granulocyte marker, see example 32).

[2] = system: acetylated H4 histone; test: Histone deacetylase inhibition: western blot for acetylated histone H4 in cells incubated 6 hours with drug; details: for Acetyl-H4 densitometric value: 6 hours, untreated = 0; for H4 histone acetylating activity, in words: summary in description
Procedure: (§3) The new described compounds were tested for their ability to inhibit the histone deacetylase activity by western blot for the acetylated isoforms of histone H3 and H4 and also to induce growth arrest in cancer cells by activating apoptosis and/or cell differentiation. Initially, biological activities of newly synthesized HDACi were assessed by using the human acute promyelocytic leukemia cell line NB4, as the experimental model. Cells were maintained in RPMI (Bio-Whittaker Europe, Verviers, Belgio) supplemented with 10% of fetal calf serum (FCS, Boehringer Mannheim, Germania) and 2 mM glutamine (Merck, Darmstadt, Germania) at 37° C. in a humidified atmosphere of 5% CO2. Cells were counted in a Burker chamber and cells viability was assessed by the trypan blu exclusion test.
(§4) Cells, obtained as described above, were harvested in sterile plates (Falcon, Becton Dickinson, Franklin Lakes, N.J.) at density of 6×10^5/mL, and incubated for 6 hours with increasing drug concentration of single compounds. Then, the cells were lysated with RIPA buffer (50 mM Tris-HCl pH 7.4, 150 mM NaCl, 1% Nonidet P-40, 1 mM EDTA plus protease inhibitor cocktail (Protease Inhibitor Cocktail Set III, n° cat. 539134, Calbiochem, Merck, Darmstadt, Germany) and sonicated (Labsonic 1510) twice for 15s pulses at 1-2 Watts in ice. Protein concentration of cell extracts was determined according to the bicinchoninic acid colorimetric method (BCA, Pierce, Rockford, USA) by using serum bovine albumin as the standard (BSA, Sigma, Steinheim, Germania). Equal amounts of protein (20-40 μg/20-30 μL/well) were separated on NuPAGE Bis-Tris 12% gel (Novex, Invitrogen, Carlsbad, Calif.) 10% and transferred to nitrocellulose membranes (Pro-Bind, pore diameter=0.45 μm; Amersham Pharmacia). Then membranes, incubated in phosphate buffer saline (PBS) with 6% defatted dry milk as blocking solution to saturate unspecific binding sites, were probed overnight at 4° C. with primary antibodies (1;1000 dilution in PBS) raised against acetylated H4 a H3 histone isoforms (Upstate Technologies, Lake Placid, N.Y., USA). […] The experiment was performed with the compound (II) S form, where R1 and R2 can be independently a methyl group or hydrogen.

[3] = system: NB4 cells; test: Cytostatic and apoptotic activity, Annexin-V-FLUOS/propidium iodide flow cytometry, 48 hours; details: for IC50: Homo sapiens, NB-4, 48 hours, graphic extrapolation of Annexin-V results, viable cells over control, read-out: IC50 (drug concentration reducing cell density or viability by 50%); for apoptotic activity, in words: leukemic cells, summary in description
Procedure: as §3
Cells, were initially harvested at 4×10^5/mL (3 mL/well) cell density 24 well plate and incubated for 48 hours with increasing drug concentration. All compounds were solubilized in DMSO so that the final concentration of vehicle in culture was lower than 0.1%. At the end of treatment cell viability and apoptosis were evaluated by cytofluorimetric analysis using Anexin-V-Fluos staining (Annexin-V-FLUOS Staining Kit, Roche Molecular Biochemicals, Mannheim, Germany).
Necrotic cells, which are also Annexin-V positive, were identified by using Propidium iodide fluorochrome, that is capable of penetrating cell membranes of dying or dead cells and binding DNA.
Briefly, aliquots of cell suspensions (approximately 10^5 cells) washed in buffer PBS, were resuspended in 5 μl of binding buffer containing annexin V-fluorescein isothiocyanate (FITC) and propidium iodide; incubation was carried out for 15 minutes at room temperature, and cells were then analyzed by flow cytometry (FACScan Becton-Dickinson, San Jose, Calif.).
The IC50 values (i.e. the drug concentration necessary to reduce cell density or viability by 50% as compared to untreated control cultures) obtained by graphic extrapolation of the Anexin-V results and expressed as percentage of viable cells over control were reported In Table 2.
Data represent the percentage of viable cells as the function of drug concentration.

[4] = system: NB4 cells; test: Granulocytic differentiation, NBT reduction assay, alone or with ATRA; details: for % of NBT+ cells: three days
Procedure: The analysis of functional myeloid differentiation induced by compounds of the invention was accomplished by Nitro-Blu tetrazolium (NBT) reduction assay as described below. Cell suspension (approximately 10^5/mL) were incubated in the presence of 0.25 mg/mL NBT and 500 ng of PMA (Phorbol-12-Myristate 13-acetate) (Sigma) at 37° C. for 30 minutes. Granulocyte or monocyte differentiated cell were capable of reducing NBT to dark formazan precipitate (blu positive cells). NBT positive cells were counted on Burker chamber and expressed as percentage of total cell population.
as §1, §2

[5] = system: acetylated H3 histone; test: Histone deacetylase inhibition: western blot for acetylated histone H3 in cells incubated 6 hours with drug; details: for Acetyl-H3 densitometric value: 6 hours, untreated = 1
Procedure: as §3, §4

[6] = system: NB4 cells; test: Morphologic evaluation of apoptosis, May-Grünwald-Giemsa stained cytosmears; details: FIG. 1 panel C, magnification ×650
Procedure: Cells were fixed with acid acetic/methanol (⅓, v/v), then 20 μL of fixed cell suspension were placed on glass slide and let dry for 24 h. The cytosmears were stained with May-Grünwald-Giemsa and apoptotic cells were identified according to the typical morphologic parameters such as nuclear fragmentation, reduction of cell volume and apoptotic bodies. Image analyses were obtained by using a Nikon Eclipse 50i microscope equipped with a Nikon Digital Sight DS -5M (Nikon Corporation, Tokyo, Japan).

Row | Structure (SMILES) | % of CD11b+ cells ([1]; 3 μM compound + 20 nM ATRA) | % of CD11b+ cells ([1]; 3 μM compound alone) | Acetyl-H4 densitometric value ([2]; 1 μM) | Acetyl-H4 densitometric value ([2]; 2 μM) | Acetyl-H4 densitometric value ([2]; 5 μM) | IC50 [3] | apoptotic activity, in words [3] | % of NBT+ cells ([4]; 3 μM compound + 20 nM ATRA) | % of NBT+ cells ([4]; 3 μM compound alone) | Acetyl-H3 densitometric value ([5]; 1 μM) | Acetyl-H3 densitometric value ([5]; 2 μM) | Acetyl-H3 densitometric value ([5]; 5 μM) | % of CD11b+ cells ([1]; 1.5 μM compound + 20 nM ATRA) | % of CD11b+ cells ([1]; 1.5 μM compound alone) | effect on CD11b positive cells, in words [1] | Acetyl-H4 densitometric value ([2]; 0.5 μM) | Acetyl-H4 densitometric value ([2]; 2.5 μM) | H4 histone acetylating activity, in words [2] | % of NBT+ cells ([4]; 1.5 μM compound + 20 nM ATRA) | % of NBT+ cells ([4]; 1.5 μM compound alone) | further results
1 | CC1N=C(c2ccccc2)c2cc(C#CCCCC(=O)NO)ccc2N(C)C1=O (racemic) [Compound (II) racemic with R1 or R2 = Me, N-hydroxy-6-(1,3-dimethyl-2-oxo-5-phenyl-2,3-dihydro-1H-benzo[e][1,4]diazepin-7-yl)-5-hexynamide] | 81.7% | 31.2% | 1.67 arbitrary units | 5.92 arbitrary units | 16.29 arbitrary units | 3.4 µM | good ability to induce apoptosis | 72% | ≦1% | 3.73 arbitrary units | 4.61 arbitrary units | 5.19 arbitrary units |  |  |  |  |  |  |  |  | increase of NBT positive cells, combination versus each agent alone ([4]; 3 μM compound + 20 nM ATRA): up to 50 fold
2 | CN1C(=O)CN=C(c2ccccc2)c2cc(C#CCCCC(=O)NO)ccc21 [Compound (II) R1 and R2 = hydrogen, 6-(1-methyl-2-oxo-5-phenyl-2,3-dihydro-1H-benzo[e][1,4]diazepin-7-yl)-N-hydroxyhex-5-ynamide] | 94.7% | 69.3% | 1.8 arbitrary units |  |  | 4.9 µM | excellent apoptotic activity | 80% | 3% | 2.41 arbitrary units |  |  | 74.3% | 44% | significant and dose-dependent increase in the amount of CD11b positive cells | 1.3 arbitrary units | 4 arbitrary units | good H4 histone acetylating activity | 45% | 2% | Acetyl-H3 densitometric value ([5]; 0.5 μM): 2.26 arbitrary units; Acetyl-H3 densitometric value ([5]; 2.5 μM): 2.836 arbitrary units
3 | C[C@@H]1N=C(c2ccccc2)c2cc(C#CCCCC(=O)NO)ccc2N(C)C1=O [Compound (II) S form with R1 or R2 = Me, (S)-6-(1,3-dimethyl-2-oxo-5-phenyl-2,3-dihydro-1H-benzo[e][1,4]diazepin-7-yl)-N-hydroxyhex-5-ynamide] |  |  | 1.33 arbitrary units |  |  | 1.7 µM |  |  |  | 3.85 arbitrary units |  |  | 62.3% | 36.3% |  | 1 arbitrary units | 12.96 arbitrary units | facilitating, in its enantiomerically pure (S) form, H4 histone acetylation | 41% | ≦1% | Acetyl-H3 densitometric value ([5]; 0.5 μM): 2.88 arbitrary units; Acetyl-H3 densitometric value ([5]; 2.5 μM): 5.23 arbitrary units; H3 histone acetylating activity, in words ([5]; summary in description): good activity to induce H3 histone acetylation in a dose-dependent way; morphology of treated cells (apoptosis) [6]: massive nuclear fragmentation suggestive of a typical apoptotic process
4 | CN1C(=O)CN=C(c2ccccc2)c2cc(NC(=O)CCCCCCC(=O)NO)ccc21 [Compound (III) R1 and R2 = hydrogen, N1-(1-methyl-2-oxo-5-phenyl-2,3-dihydro-1H-benzo[e][1,4]diazepin-7-yl)-N8-hydroxyoctanediamide] |  |  | 2.39 arbitrary units | 6.63 arbitrary units |  | 3 µM | good acetylating and apoptotic activities |  |  | 2.84 arbitrary units | 3.23 arbitrary units |  |  |  |  |  |  |  |  |  | HDAC inhibitory / acetylating activity, in words (histone not specified) ([5]; summary in description): good acetylating and apoptotic activities
5 | C[C@H]1N=C(c2ccccc2)c2cc(NC(=O)CCCCCCC(=O)NO)ccc2N(C)C1=O [Compound (III) R form with R1 or R2 = Me, (R)—N1-(1,3-dimethyl-2-oxo-5-phenyl-2,3-dihydro-1H-benzo[e][1,4]diazepin-7-yl)-N8-hydroxyoctanediamide] | 80% | 39.3% | 17.78 arbitrary units | 29.63 arbitrary units | 34.07 arbitrary units | 3.7 µM | high apoptotic activity | 70% | 3% | 4.46 arbitrary units | 6.85 arbitrary units | 7.27 arbitrary units |  |  | augmented the percentage of CD11b positive cells |  |  | excellent H4 histone acetylating activity |  |  | H3 histone acetylating activity, in words ([5]; summary in description): good H3 histone acetylating activity
